From ChEMBL document CHEMBL4665908, “Estrogen Receptor Degrading PROTACS for the Treatment of Breast Cancer” (ACS Med Chem Lett, 2020)

target: T1, Estrogen receptor (Homo sapiens, UniProt P03372); assay: Displacement of fluorescent ligand from human recombinant GST-tagged ER-alpha ligand binding domain (307 to 554 residues) incubated for 15 mins by TR-FRET based competitive assay
T1 sequence (P03372 whole entry): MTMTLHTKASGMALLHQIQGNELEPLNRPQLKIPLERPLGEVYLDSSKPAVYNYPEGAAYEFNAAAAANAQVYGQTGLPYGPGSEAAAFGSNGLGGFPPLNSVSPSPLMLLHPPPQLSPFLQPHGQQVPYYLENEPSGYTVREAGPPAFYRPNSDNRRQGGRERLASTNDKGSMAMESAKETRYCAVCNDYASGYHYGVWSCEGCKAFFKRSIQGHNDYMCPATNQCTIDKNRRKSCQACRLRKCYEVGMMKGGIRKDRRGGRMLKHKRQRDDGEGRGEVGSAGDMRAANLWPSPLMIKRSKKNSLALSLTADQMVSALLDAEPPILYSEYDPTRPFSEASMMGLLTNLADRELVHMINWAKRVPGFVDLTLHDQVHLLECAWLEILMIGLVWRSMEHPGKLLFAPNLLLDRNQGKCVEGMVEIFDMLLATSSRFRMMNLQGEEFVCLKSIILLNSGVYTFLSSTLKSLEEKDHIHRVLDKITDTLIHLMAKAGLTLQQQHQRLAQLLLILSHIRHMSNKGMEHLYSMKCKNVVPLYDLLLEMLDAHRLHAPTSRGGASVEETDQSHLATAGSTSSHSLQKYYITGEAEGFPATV

Row | IC50 [nM] | SMILES
1 | 1.9 | C[C@@H]1Cc2c([nH]c3ccccc23)[C@@H](c2cnc(N3CCC4(CC3)CC(CN3CC5(CCN(c6ccc7c(c6)CN(C6CCC(=O)NC6=O)C7=O)CC5)C3)C4)nc2)N1CC(C)(C)F (stereo partly drawn)

target: Protein cereblon/Estrogen receptor (Homo sapiens, UniProt P03372+Q96SW2); assay: Protac activity at CRBN/ERalpha in human MCF7 cells assessed as induction of ERalpha protein degradation incubated for 8 to 22 hrs by immunofluorescence assay; format: cell-based
Sequence (Q96SW2 whole entry, one chain of several): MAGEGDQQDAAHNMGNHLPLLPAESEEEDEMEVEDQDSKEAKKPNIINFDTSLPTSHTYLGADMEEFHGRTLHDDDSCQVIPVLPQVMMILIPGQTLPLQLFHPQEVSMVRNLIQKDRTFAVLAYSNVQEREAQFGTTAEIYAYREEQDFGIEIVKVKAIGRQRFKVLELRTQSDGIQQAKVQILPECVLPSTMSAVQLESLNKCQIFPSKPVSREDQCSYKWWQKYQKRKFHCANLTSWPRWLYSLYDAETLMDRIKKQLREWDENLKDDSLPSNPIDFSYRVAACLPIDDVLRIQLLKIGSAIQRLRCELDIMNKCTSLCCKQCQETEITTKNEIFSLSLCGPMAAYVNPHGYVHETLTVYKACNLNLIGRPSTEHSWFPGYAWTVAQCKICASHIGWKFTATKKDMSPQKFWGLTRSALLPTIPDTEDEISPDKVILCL

Row | SMILES | IC50 [nM]
2 | C[C@@H]1Cc2c([nH]c3ccccc23)[C@@H](c2cnc(N3CCC(CN4CCN(CC5CCN(c6ccc7c(c6)CN(C6CCC(=O)NC6=O)C7=O)CC5)CC4)CC3)nc2)N1CC(C)(C)F (stereo partly drawn) | 0.6
3 | C[C@@H]1Cc2c([nH]c3ccccc23)[C@@H](c2cnc(N3CCC4(CCN(CCC5CCN(c6ccc7c(c6)CN(C6CCC(=O)NC6=O)C7=O)CC5)CC4)CC3)nc2)N1CC(C)(C)F (stereo partly drawn) | 0.8
4 | C[C@@H]1Cc2c([nH]c3ccccc23)[C@@H](c2cnc(N3CCC(CCN4CCN(c5ccc6c(c5)CN(C5CCC(=O)NC5=O)C6=O)CC4)CC3)nc2)N1CC(C)(C)F (stereo partly drawn) | 0.5
5 | C[C@@H]1Cc2c([nH]c3ccccc23)[C@@H](c2cnc(N3CCC(OCCN4CCN(c5ccc6c(c5)CN(C5CCC(=O)NC5=O)C6=O)CC4)CC3)nc2)N1CC(C)(C)F (stereo partly drawn) | 0.5
6 | COc1cc(N2CCN(CC3CCN(c4ncc([C@@H]5c6[nH]c7ccccc7c6C[C@@H](C)N5CC(C)(C)F)cn4)CC3)CC2)cc2c1C(=O)N(C1CCC(=O)NC1=O)C2 (stereo partly drawn) | 0.7
7 | C[C@@H]1Cc2c([nH]c3ccccc23)[C@@H](c2c(F)cc(OCCCCCN3CCN(c4ccc5c(c4)CN(C4CCC(=O)NC4=O)C5=O)CC3)cc2F)N1CC(C)(C)F (stereo partly drawn) | 0.6
8 | C[C@@H]1Cc2c([nH]c3ccccc23)[C@@H](c2cnc(N3CCC(CCN4CCOC5(CC4)CCN(c4ccc6c(c4)CN(C4CCC(=O)NC4=O)C6=O)CC5)CC3)nc2)N1CC(C)(C)F (stereo partly drawn) | 0.5

Stronger by IC50, values ahead:

Row | IC50 [nM] | SMILES
9 | 0.4 | COc1cc(N2CCN(CCC3CCN(c4ncc([C@@H]5c6[nH]c7ccccc7c6C[C@@H](C)N5CC(C)(C)F)cn4)CC3)CC2)cc2c1C(=O)N(C1CCC(=O)NC1=O)C2 (stereo partly drawn)
10 | 0.4 | C[C@@H]1Cc2c([nH]c3ccccc23)[C@@H](c2cnc(N3CCC4(CC3)CC(CN3CC5(CCN(c6ccc7c(c6)CN(C6CCC(=O)NC6=O)C7=O)CC5)C3)C4)nc2)N1CC(C)(C)F (stereo partly drawn)
11 | 0.4 | C[C@@H]1Cc2c([nH]c3ccccc23)[C@@H](c2cnc(OC3CCC4(CC3)CCN(CC3CCN(c5ccc6c(c5)CN(C5CCC(=O)NC5=O)C6=O)CC3)CC4)nc2)N1CC(C)(C)F (stereo partly drawn)
12 | 0.4 | C[C@@H]1Cc2c([nH]c3ccccc23)[C@@H](c2cnc(N3CCC(CCN4CCC5(CC4)CCN(c4ccc6c(c4)CN(C4CCC(=O)NC4=O)C6=O)CC5)CC3)nc2)N1CC(C)(C)F (stereo partly drawn)
13 | 0.4 | C[C@@H]1Cc2c([nH]c3ccccc23)[C@@H](c2cnc(N3CCC(CN4CCOC5(CC4)CCN(c4ccc6c(c4)CN(C4CCC(=O)NC4=O)C6=O)CC5)CC3)nc2)N1CC(C)(C)F (stereo partly drawn)
